Laboratory results published in ChEMBL document CHEMBL1201862, “PubChem BioAssay data set” (2004).
Active and inactive are the calls of the source.

What was measured:
[1] = NIH-3T3 fibroblast cytotoxicity, dose response, cytotoxicity control, cell-based, fluorescence, Alamar Blue, secondary assay (AID 2327); type: functional;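 further: NIH-3T3 mouse fibroblasts cultured with fluconazole at 8 µg/mL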
[2] = luciferase reporter signal suppression in cells – H4 neuroglioma cells, luminescence, dose response (AID 1990); type: functional, cell-based
HEK293 [3] = test: inhibition of NOD1-driven NF-kB reporter – cell-based, luminescence, uHTS, primary screen (AID 1578); type: functional; details: Homo sapiens
BJ [4] = test: BJ-TERT fibroblast viability loss – cell-based, RAS-independent, luminescence, dose response (AID 1933); type: functional; details: Homo sapiens
Protein Rev = Protein Rev (Human immunodeficiency virus type 1 group M subtype B (isolate WMJ22)(HIV-1), UniProt P05866); test: inhibitors of Rev protein–RRE RNA complex – biochemical, protein-RNA interaction, dose response (AID 842); parameters: species or system Human immunodeficiency virus 1
HEK293 [5] = test: cells; type: functional, cell-based; details: Homo sapiens
[6] = Luminescence Cell-Based Dose Response HTS to Identify Inhibitors of 5'UTR Stem-Loop Driven Prion Protein mRNA Translation in H4 Neuroglioblastoma Cells. [Related pubchem assays: 1827 (Project Summary), 1813 (Primary HTS)]; type: functional
[7] = alpha-synuclein stem-loop luciferase translation blockers – H4 neuroglioma cells, luminescence, confirmation (AID 1988); type: functional, cell-based
BJ [8] = test: cells; type: functional, cell-based; details: Homo sapiens
[9] = fluconazole-exposed Candida albicans growth modulators – fluorescence, retest, confirmation (AID 2467); type: functional, cell-based
HEK293 [10] = test: cells; type: functional, cell-based; details: Homo sapiens; remark: listed apart in the source
[11] = target: Nucleotide-binding oligomerization domain-containing protein 2 (Homo sapiens, UniProt Q9HC29); test: inhibition of NOD2-driven NF-kB reporter – cell-based, luminescence, uHTS, HEK293 (AID 1566); type: functional
HEK293 [12] = test: NOD2 signaling inhibitors in MDP-stimulated cells, cell-based, uHTS, luminescence (AID 2001); type: functional; details: Homo sapiens
HEK293 [13] = test: cells; type: functional, cell-based; details: Homo sapiens; remark: listed apart in the source
[14] = viability of PTEN-deleted HCT116 cells – cell-based, HCT116 PTEN knockout, dose response (AID 1047); type: functional;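 further: HCT116 colon tumor cells with PTEN knocked out; cells exposed to compound for 60 hours before readout; potency for loss of cell viability measured by luminescence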
[15] = target: T1, Serine/threonine-protein phosphatase (Candida dubliniensis (strain CD36 / CBS 7987 / NCPF 3949 / NRRLY-17841) (Yeast), UniProt B9W6M3); test: blockers of CaCl2-induced CDRE-lacZ signaling – S. cerevisiae, luminescence, secondary, dose response (AID 2388); type: functional, cell-based;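 further: yeast reporter cells carrying a calcineurin-responsive lacZ construct stimulated with calcium chloride; luminescent beta-galactosidase reporter signal in whole cells rather than isolated phosphatase activity; potency for inhibition where a drop in reporter signal means calcineurin blockade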
T1 sequence (B9W6M3 whole entry): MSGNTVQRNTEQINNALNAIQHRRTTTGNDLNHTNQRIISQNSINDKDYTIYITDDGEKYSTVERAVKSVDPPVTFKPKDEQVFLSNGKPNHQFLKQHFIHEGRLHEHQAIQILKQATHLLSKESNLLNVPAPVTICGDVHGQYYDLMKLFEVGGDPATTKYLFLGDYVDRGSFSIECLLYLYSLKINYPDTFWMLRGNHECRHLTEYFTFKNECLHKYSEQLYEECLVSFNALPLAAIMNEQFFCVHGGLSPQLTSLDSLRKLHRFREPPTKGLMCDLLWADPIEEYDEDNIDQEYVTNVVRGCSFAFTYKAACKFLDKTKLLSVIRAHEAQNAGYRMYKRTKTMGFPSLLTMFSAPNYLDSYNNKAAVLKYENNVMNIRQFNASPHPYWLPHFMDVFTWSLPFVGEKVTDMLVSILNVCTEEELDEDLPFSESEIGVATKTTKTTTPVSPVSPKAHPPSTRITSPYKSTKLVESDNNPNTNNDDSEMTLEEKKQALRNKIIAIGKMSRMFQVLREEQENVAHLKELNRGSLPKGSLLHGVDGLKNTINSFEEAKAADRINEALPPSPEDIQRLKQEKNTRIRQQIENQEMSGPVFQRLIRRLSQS

[16] = viability of HCT116 lacking mutant beta-catenin – cell-based, human colon tumor, dose response (AID 1045); type: functional;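 further: HCT116 colon tumor cells with beta catenin knocked out; cells exposed to compound for 60 hours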
BJ [17] = test: BJ-TERT-LT-ST fibroblast viability loss – cell-based, RAS-independent, luminescence, dose response (AID 1935); type: functional; details: Homo sapiens;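 further: BJ fibroblasts immortalized with TERT plus LT and ST oncogenes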
[18] = DRD fibroblast viability loss – cell-based, non-viral oncogenic, luminescence, dose response (AID 1934); type: functional; details: Homo sapiens
[19] = THP-1 cell cytotoxicity, dose response, cytotoxicity control for non-replicating M. tuberculosis project (AID 489025); type: functional
[20] = HepG2 cell cytotoxicity, dose response, cytotoxicity control for non-replicating M. tuberculosis project (AID 489018); type: functional; details: Mycobacterium tuberculosis
Jurkat = test: blockers of NF-kB activation in T cells – Jurkat, luciferase reporter, luminescence, B- and T-cell, dose response (AID 489004); type: functional, cell-based; details: Homo sapiens;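 further: NF-kB luciferase reporter Jurkat cells stimulated with PMA plus ionomycin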
[21] = Vero E6 cell cytotoxicity, dose response, cytotoxicity control for non-replicating M. tuberculosis project, secondary assay (AID 492998); type: functional, VeroE6; details: Vero C1008
[22] = HEK-293T viability loss, compound-treated – cell-based, uHTS hits, cytotoxicity control for B/T-cell NF-kB inhibitor project, dose response (AID 489019); type: functional;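 further: IC50 reflects cytotoxicity as loss of cell viability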
cells = type: functional
BJ [23] = test: growth inhibition of engineered Ras-driven BJ cells – cell-based, alamar blue fluorescence, cherrypicked samples, dose response (AID 2631); type: functional; details: Homo sapiens;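 further: confirmatory dose-response assay in RAS-dependent BJ fibroblasts engineered with TERT, LT and ST, with cytotoxicity read by fluorescence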
INS1 = test: INS-1E survival protection against cytokine death – cell-based, luminescence, retest, dose response (AID 449756); type: functional; details: Rattus norvegicus;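 further: cell death triggered by IL-1 beta plus TNF-alpha plus IFN-gamma mixture; protective hits raise ATP signal compared with cytokine alone wells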
[24] = target: ATP-dependent molecular chaperone HSP82 (Candida albicans (strain WO-1) (Yeast), UniProt C4YTQ8); test: steroid-induced GRE reporter decrease in yeast – S. cerevisiae, luminescence, Hsp90 inhibitor project, dose response (AID 2400); type: functional, cell-based;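 further: beta-galactosidase luminescence from glucocorticoid response element reporter as proxy for Hsp90 function; inhibitor potency where signal loss means Hsp90 inhibition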
[25] = blockers of HIV-1 envelope-mediated cell-cell fusion – cherry-pick, dose response (AID 652057); type: functional, cell-based
[26] = viability loss in CEM21 cells – cell-based, CellTiter-Glo luminescence, cherry-picked, cytotoxicity control for viral fusion inhibitor project, dose response (AID 652042); type: functional;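 further: potency for signal decrease meaning cytotoxicity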
[27] = blockers of HIV-1 ZM109 envelope-driven cell-cell fusion – HeLa effector, CEM target cells, luciferase, cherry-pick, dose response (AID 652058); type: functional, cell-based;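 further: luciferase signal from HIV-1 Env mediated cell-cell fusion of effector and target cells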
[28] = HIV-1 AD8 envelope cell-cell fusion blockers – cherry-pick, dose response (AID 652062); type: functional, cell-based;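 further: luciferase signal from cell-cell fusion driven by HIV-1 clade B AD8 Env; potency is for inhibitors of fusion seen as a drop in luminescence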
[29] = target: Lysine-specific demethylase 4C (Homo sapiens, UniProt Q9H3R0); test: inhibition of JMJD2C H3K9me3 demethylation – biochemical, DELFIA europium, cherry-picked samples, dose response (AID 488835); type: functional
[30] = target: Peroxisome proliferator-activated receptor gamma/Nuclear receptor coactivator 1 (Homo sapiens, UniProt P37231); test: (§1) TR-FRET dose response biochemical High Throughput Screening assay for agonists of the steroid receptor coactivator 1 (SRC-1) recruitment by the peroxisome proliferator-activated receptor gamma (PPAR gamma): non-selective agonists. [Related pubchem assays (depositor defined):AID1300, AID1808, AID504735, AID631]; type: protein assay
[31] = target: Peroxisome proliferator-activated receptor gamma/Nuclear receptor coactivator 3 (Homo sapiens, UniProt P37231); test: as §1, with “3 (SRC-3)” for “1 (SRC-1)”, “assays: 1301 (Confirmation screen.), 1048 (Primary screen.)]” for “assays (depositor defined):AID1300, AID1808, AID504735, AID631]”; type: functional
[32] = target: Peroxisome proliferator-activated receptor gamma/Nuclear receptor coactivator 2 (Homo sapiens, UniProt P37231); test: TR-FRET dose response biochemical High Throughput Screening assay for agonists of the steroid receptor coactivator 2 (SRC-2) recruitment by the peroxisome proliferator-activated receptor gamma (PPAR gamma): non-selective agonists. [Related pubchem assays: 1297, 1032 ]; type: functional
Keap1/Nrf2 = Keap1/Nrf2 (Homo sapiens, UniProt Q14145); test: disruptors of Keap1 binding to Nrf2 peptide – biochemical, fluorescence polarization, cherry-picked samples, dose response (AID 588683)

Chain of Peroxisome proliferator-activated receptor gamma/Nuclear receptor coactivator 2 (P37231 whole entry): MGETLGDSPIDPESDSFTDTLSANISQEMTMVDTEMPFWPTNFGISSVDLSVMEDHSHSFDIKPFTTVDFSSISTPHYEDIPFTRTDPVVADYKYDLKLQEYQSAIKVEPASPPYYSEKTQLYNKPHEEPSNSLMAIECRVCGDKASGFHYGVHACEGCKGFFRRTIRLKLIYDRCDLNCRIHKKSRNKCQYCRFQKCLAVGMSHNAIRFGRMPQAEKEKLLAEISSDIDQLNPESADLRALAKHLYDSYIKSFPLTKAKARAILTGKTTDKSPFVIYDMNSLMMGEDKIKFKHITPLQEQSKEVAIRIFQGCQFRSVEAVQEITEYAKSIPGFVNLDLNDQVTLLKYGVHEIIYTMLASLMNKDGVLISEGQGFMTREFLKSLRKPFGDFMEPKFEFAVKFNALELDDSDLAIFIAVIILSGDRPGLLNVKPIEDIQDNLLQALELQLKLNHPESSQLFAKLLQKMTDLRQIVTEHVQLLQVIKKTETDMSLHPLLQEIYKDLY
Chain of Peroxisome proliferator-activated receptor gamma/Nuclear receptor coactivator 2 (Q15596 whole entry, further chain): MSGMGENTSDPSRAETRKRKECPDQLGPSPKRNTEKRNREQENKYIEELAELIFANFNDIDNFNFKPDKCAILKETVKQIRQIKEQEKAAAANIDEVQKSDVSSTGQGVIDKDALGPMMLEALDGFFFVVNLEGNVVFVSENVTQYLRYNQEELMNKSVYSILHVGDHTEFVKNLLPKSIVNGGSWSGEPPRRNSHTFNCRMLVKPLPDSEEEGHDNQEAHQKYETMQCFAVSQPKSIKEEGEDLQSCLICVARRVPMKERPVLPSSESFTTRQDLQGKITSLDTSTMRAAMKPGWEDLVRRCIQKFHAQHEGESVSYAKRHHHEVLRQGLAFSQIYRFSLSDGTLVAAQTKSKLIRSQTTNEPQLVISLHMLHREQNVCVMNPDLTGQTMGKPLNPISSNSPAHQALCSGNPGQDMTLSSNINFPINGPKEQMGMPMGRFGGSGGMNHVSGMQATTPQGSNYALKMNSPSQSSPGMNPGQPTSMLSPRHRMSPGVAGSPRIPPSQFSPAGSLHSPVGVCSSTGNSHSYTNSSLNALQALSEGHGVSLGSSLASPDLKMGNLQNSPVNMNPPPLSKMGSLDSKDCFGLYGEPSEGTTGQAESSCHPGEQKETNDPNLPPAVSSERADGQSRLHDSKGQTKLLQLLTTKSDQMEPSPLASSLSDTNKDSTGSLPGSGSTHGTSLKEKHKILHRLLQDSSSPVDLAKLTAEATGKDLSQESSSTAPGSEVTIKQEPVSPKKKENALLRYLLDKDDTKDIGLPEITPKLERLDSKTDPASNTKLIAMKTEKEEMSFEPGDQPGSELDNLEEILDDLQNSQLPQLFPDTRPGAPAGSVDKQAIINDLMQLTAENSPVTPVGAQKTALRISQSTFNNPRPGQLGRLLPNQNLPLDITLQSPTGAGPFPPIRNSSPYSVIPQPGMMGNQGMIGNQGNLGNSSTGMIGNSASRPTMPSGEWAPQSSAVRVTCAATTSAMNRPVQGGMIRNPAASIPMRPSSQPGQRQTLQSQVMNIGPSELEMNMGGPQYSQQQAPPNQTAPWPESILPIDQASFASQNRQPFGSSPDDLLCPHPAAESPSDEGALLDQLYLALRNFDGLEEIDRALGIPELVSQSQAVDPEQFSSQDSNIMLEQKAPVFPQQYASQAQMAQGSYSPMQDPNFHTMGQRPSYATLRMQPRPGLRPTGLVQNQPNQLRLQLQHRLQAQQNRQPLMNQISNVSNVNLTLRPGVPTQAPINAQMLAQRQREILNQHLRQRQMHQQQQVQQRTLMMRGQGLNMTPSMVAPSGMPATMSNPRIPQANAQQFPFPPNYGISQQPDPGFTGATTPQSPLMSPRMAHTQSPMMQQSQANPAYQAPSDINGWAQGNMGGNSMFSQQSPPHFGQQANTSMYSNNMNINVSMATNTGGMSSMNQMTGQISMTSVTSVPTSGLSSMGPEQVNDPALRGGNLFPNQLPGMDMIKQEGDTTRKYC
Chain of Peroxisome proliferator-activated receptor gamma/Nuclear receptor coactivator 3 (P37231 whole entry): as the sequence (P37231 whole entry) above
Chain of Peroxisome proliferator-activated receptor gamma/Nuclear receptor coactivator 3 (Q9Y6Q9 whole entry, further chain): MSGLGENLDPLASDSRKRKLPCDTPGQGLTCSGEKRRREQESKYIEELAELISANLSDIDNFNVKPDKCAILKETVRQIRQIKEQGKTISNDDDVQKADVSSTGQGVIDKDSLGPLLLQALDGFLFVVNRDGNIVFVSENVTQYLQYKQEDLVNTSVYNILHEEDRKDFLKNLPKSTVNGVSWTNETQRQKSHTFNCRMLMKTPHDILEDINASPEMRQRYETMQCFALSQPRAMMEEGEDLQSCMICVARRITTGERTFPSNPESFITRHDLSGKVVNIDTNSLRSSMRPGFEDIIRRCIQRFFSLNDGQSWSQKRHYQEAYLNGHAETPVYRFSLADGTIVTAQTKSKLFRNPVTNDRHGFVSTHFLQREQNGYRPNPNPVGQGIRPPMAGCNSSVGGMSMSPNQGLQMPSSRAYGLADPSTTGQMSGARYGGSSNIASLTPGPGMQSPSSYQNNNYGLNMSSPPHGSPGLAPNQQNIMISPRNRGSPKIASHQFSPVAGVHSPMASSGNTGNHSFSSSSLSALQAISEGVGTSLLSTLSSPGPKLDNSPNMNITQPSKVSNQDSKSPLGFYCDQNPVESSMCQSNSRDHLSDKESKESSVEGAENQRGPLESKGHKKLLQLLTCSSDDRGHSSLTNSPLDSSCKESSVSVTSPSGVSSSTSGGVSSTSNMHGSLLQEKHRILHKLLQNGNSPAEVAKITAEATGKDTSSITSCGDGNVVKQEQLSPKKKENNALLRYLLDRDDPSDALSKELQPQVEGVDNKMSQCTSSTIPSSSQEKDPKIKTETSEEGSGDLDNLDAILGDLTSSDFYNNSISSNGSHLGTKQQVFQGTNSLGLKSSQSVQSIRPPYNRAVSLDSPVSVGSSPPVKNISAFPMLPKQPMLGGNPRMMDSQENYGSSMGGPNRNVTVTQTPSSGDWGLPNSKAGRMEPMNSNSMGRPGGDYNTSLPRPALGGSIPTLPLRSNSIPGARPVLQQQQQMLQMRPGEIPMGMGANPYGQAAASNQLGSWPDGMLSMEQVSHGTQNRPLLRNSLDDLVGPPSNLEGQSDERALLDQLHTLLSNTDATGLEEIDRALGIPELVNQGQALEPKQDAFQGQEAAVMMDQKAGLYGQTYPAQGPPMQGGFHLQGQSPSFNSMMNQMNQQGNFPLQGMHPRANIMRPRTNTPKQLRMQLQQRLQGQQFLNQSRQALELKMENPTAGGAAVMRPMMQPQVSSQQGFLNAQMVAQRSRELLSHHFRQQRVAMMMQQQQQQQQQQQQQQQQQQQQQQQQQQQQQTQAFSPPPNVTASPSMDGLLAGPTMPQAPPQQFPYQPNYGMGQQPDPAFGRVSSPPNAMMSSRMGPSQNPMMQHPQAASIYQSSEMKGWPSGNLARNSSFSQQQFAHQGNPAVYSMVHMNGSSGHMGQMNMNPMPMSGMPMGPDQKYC
Chain of Protein Rev (P05866 whole entry): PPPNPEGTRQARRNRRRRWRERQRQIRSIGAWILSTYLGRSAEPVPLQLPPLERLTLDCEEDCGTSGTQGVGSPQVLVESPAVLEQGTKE
Chain of Lysine-specific demethylase 4C (Q9H3R0 whole entry): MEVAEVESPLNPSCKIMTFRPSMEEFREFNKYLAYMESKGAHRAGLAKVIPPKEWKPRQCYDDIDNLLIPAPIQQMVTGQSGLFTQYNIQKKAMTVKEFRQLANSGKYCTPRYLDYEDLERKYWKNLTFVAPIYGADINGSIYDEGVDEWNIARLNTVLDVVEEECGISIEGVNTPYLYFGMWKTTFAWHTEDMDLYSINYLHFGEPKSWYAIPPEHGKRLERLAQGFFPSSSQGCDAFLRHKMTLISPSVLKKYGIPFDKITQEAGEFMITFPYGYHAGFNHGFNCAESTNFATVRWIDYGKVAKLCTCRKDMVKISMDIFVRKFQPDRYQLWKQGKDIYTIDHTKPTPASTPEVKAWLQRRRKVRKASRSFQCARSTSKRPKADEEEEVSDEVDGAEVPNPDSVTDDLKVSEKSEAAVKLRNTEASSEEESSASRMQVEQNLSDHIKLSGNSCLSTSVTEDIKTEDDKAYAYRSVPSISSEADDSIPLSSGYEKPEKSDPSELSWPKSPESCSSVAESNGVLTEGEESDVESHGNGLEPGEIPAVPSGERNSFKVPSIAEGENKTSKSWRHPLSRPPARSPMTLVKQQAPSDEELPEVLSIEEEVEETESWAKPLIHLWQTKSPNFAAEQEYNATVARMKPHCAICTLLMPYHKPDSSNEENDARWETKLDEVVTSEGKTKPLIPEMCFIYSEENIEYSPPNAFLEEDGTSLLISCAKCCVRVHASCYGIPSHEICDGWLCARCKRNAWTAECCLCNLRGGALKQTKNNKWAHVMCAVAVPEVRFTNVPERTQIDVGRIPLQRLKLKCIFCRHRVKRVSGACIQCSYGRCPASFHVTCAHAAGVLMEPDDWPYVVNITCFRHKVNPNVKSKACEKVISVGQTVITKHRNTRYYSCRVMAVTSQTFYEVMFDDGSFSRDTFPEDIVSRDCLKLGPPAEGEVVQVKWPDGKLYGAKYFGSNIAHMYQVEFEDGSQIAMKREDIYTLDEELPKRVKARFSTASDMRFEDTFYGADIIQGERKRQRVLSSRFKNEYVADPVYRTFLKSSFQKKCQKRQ

Question: With `COc1ccc(/C=C/c2cc(-c3ccc(C)cc3)o[n+]2C)cc1` as the molecule, how does the EC50 [1] read?
Answer: > 160 µM (inactive)

Question: What about the EC50 [2] of the same molecule?
Answer: 0.894 µM (active)

Question: What about the EC50 (HEK293 [3]) of the same molecule?
Answer: 9.15 µM (active)

Question: What about the EC50 (BJ [4]) of the same molecule?
Answer: 0.601 µM (inconclusive)

Question: And the IC50 (Protein Rev)?
Answer: > 79.4 µM (not active)

Question: And the IC50 (HEK293 [5])?
Answer: 5.25 µM (active)

Question: And the EC50 [6]?
Answer: 12.2 µM (active)

Question: What about the EC50 [7] of the same molecule?
Answer: 2.27 µM (active)

Question: And the EC50 (BJ [8])?
Answer: 1.87 µM (inconclusive)

Question: What about the EC50 [9] of the same molecule?
Answer: 0.576 µM (active)

Question: What about the IC50 (HEK293 [10]) of the same molecule?
Answer: 13.2 µM (active)

Question: And the EC50 [11]?
Answer: 8.29 µM (active)

Question: And the IC50 (HEK293 [12])?
Answer: 8.34 µM (active)

Question: What about the IC50 (HEK293 [13]) of the same molecule?
Answer: > 20 µM (inactive)

Question: What about the EC50 [14] of the same molecule?
Answer: 0.778 µM (active)

Question: What about the EC50 [15] of the same molecule?
Answer: > 180 µM (inactive)

Question: What about the EC50 [16] of the same molecule?
Answer: 0.733 µM (active)

Question: And the EC50 (BJ [17])?
Answer: 4.41 µM (inconclusive)

Question: What about the EC50 [18] of the same molecule?
Answer: 5.02 µM (active)

Question: And the CC50 [19]?
Answer: 2.38 µM (active)

Question: What about the CC50 [20] of the same molecule?
Answer: 9.8 µM (active)

Question: What about the IC50 (Jurkat) of the same molecule?
Answer: 3.13 µM (active)

Question: And the CC50 [21]?
Answer: > 20 µM (active)

Question: What about the IC50 [22] of the same molecule?
Answer: > 80 µM (inactive)

Question: What about the IC50 (cells) of the same molecule?
Answer: 5.99 µM (active)

Question: And the EC50 (BJ [23])?
Answer: 3.43 µM (active)

Question: What about the AC50 (INS1) of the same molecule?
Answer: 0.76 µM (active)

Question: And the EC50 [24]?
Answer: > 160 µM (inactive)

Question: And the AC50 [25]?
Answer: 6.83 µM (active)

Question: What about the AC50 [26] of the same molecule?
Answer: 4.21 µM (active)

Question: And the AC50 [27]?
Answer: 3.33 µM (active)

Question: What about the AC50 [28] of the same molecule?
Answer: 7.88 µM (active)

Question: Which AC50 [29] does the source give for `Nc1cccc(C(=O)Nc2ccco2)c1` here?
Answer: 27.5 µM (active)

Question: What does the source list for `Cc1onc(-c2ccccc2Cl)c1C(=O)Nc1nnc(-c2ccc(Cl)cc2Cl)s1`?
Answer: EC50 [30]: 51.2 µM (inactive); EC50 [31]: 75.5 µM (not active); EC50 [32]: 42.8 µM (not active)

Question: For `Sc1nc(-c2ccc(Cl)cc2)cs1`, which EC50 [30] is on record?
Answer: 12 µM (inactive)

Question: And the EC50 [31]?
Answer: > 79.4 µM (not active)

Question: What about the EC50 [32] of the same molecule?
Answer: 21.8 µM (not active)

Question: Which AC50 (Keap1/Nrf2) does the source give for `Cc1ccc(NC(=O)/C(C#N)=C(\N)C(Cl)(Cl)Cl)nc1` here?
Answer: 11.9 µM (active)
